Results published in patent publication US11702404B2, “GLP-1R modulating compounds” (priority 2019, dated 2023).
pEC50: −log10 of the molar value. Like-named read-outs stand apart in the source and are kept apart here.

How the values were obtained:
GLP-1R = GLP-1R (Homo sapiens, UniProt P43220); experiment: GLP-1R activation: cAMP increase in CHO cells stably expressing GLP-1R; type: cell-based; settings: for pEC50: cAMP increase, CHO cells stably expressing GLP-1R, 10 point dose response, 30 minutes incubation, read-out: EC50
GLP-1R, sequence (P43220 24-463): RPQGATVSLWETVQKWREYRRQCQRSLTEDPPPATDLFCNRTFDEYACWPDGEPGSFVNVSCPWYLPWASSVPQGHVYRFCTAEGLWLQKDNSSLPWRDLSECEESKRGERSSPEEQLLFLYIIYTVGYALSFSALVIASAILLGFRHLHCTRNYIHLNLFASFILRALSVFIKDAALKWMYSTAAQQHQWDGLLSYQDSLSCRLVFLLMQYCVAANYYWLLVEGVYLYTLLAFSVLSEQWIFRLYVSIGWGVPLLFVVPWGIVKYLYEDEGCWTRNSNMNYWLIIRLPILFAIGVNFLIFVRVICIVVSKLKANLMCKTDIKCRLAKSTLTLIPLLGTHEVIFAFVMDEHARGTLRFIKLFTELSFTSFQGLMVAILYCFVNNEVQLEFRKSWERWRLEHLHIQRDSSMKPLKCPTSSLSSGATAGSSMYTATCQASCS

[1] = Microsomal stability, human liver microsomes (predicted hepatic clearance); settings: predicted from in vitro microsomal stability data

| Structure (SMILES) | pEC50 (GLP-1R) | Predicted Hepatic Clearance (Pred. Cl.) [1] [mL/min/kg] | EC50 (GLP-1R; EC50 (nM)) [nM] |
| --- | --- | --- | --- |
| O=C(O)c1cc(F)c2nc(Cc3cc(F)c(-c4cccc(OCc5ccc(C(F)(F)F)cc5F)n4)cc3F)n(Cc3ncco3)c2c1 [Example 783] | 9.96 | 1.83 |  |
| N#Cc1cc(F)c(COc2cccc(-c3cc(F)c(Cc4nc5c(F)cc(C(=O)O)cc5n4Cc4ncco4)cc3F)n2)cc1F [Example 784] | 9.26 | 1.83 |  |
| O=C(O)c1ccc2nc(Cc3cc(F)c(-c4ccnc(OCc5ccc(C(F)(F)F)cc5F)n4)cc3F)n(C[C@@H]3CCO3)c2c1 [Example 785] | 10.30 | 1.83 |  |
| N#Cc1cc(F)c(COc2nccc(-c3cc(F)c(Cc4nc5ccc(C(=O)O)cc5n4C[C@@H]4CCO4)cc3F)n2)cc1F [Example 786] | 9.66 | 1.83 |  |
| O=C(O)c1ccc2nc(Cc3ccc(-c4ccnc(OCc5ccc(C(F)(F)F)cc5F)n4)c(F)c3)n(C[C@@H]3CCO3)c2c1 [Example 788] | 9.77 | 5.5 |  |
| N#Cc1cc(F)c(COc2nccc(-c3ccc(Cc4nc5ccc(C(=O)O)cc5n4C[C@@H]4CCO4)cc3F)n2)cc1F [Example 789] | 8.93 | 5.67 |  |
| O=C(O)c1ccc2nc(Cc3ccc(-c4ccnc(OCc5ccc(C(F)F)cc5F)n4)c(F)c3)n(C[C@@H]3CCO3)c2c1 [Example 790] | 9.36 | 3 |  |
| COCCn1c(Cc2cc(F)c(-c3nc(OCc4ccc(C#N)cc4F)ccc3F)cc2F)nc2c(F)cc(C(=O)O)cc21 [Example 791] | 8.56 | 4.83 |  |
| N#Cc1ccc(COc2ccc(F)c(-c3cc(F)c(Cc4nc5c(F)cc(C(=O)O)cc5n4C[C@@H]4CCO4)cc3F)n2)c(F)c1 [Example 792] | 10.40 | 6.17 |  |
| N#Cc1ccc(COc2ccc(F)c(-c3cc(F)c(Cc4nc5ccc(C(=O)O)cc5n4C[C@@H]4CCO4)cc3F)n2)c(F)c1 [Example 793] | 9.77 | 5.67 |  |
| N#Cc1ccc(COc2ccc(F)c(-c3ccc(Cc4nc5ccc(C(=O)O)cc5n4C[C@@H]4CCO4)cc3)n2)c(F)c1 [Example 794] | 9.01 | 6.17 |  |
| N#Cc1ccc(COc2nc(-c3ccc(Cc4nc5ccc(C(=O)O)cc5n4C[C@@H]4CCO4)cc3)ccc2F)c(F)c1 [Example 795] | 9.19 | 1.83 |  |
| N#Cc1cc(F)c(COc2cccc(-c3cc(F)c(Cc4nc5c(F)cc(C(=O)O)cc5n4C[C@@H]4CCO4)cc3F)n2)cc1F [Example 796] | 10.52 | 1.83 |  |
| N#Cc1ccc(COc2ccc(F)c(-c3ccc(Cc4nc5ccc(C(=O)O)cc5n4C[C@@H]4CCO4)c(F)c3)n2)c(F)c1 [Example 797] | 9.57 | 7.17 |  |
| N#Cc1cc(F)c(COc2cccc(-c3cc(F)c(Cc4nc5ccc(C(=O)O)cc5n4C[C@@H]4CCO4)cc3F)n2)cc1F [Example 798] | 9.92 | 5.33 |  |
| COCCn1c(Cc2cc(F)c(-c3cccc(OCc4ccc(C#N)cc4)n3)cc2F)nc2c(F)cc(C(=O)O)cc21 [Example 799] | 6.87 | 2.67 |  |
| O=C(O)c1ccc2nc(Cc3cc(F)c(-c4cccc(OCc5ccc(C(F)F)cc5F)n4)cc3F)n(C[C@@H]3CCO3)c2c1 [Example 800] | 10.00 | 1.83 |  |
| O=C(O)c1ccc2nc(Cc3cc(F)c(-c4ccnc(OCc5ccc(C(F)F)cc5F)n4)cc3F)n(C[C@@H]3CCO3)c2c1 [Example 801] | 9.92 | 3.17 |  |
| COCCn1c(Cc2cc(F)c(-c3cccc(OCc4ccc(Cl)c(F)c4F)n3)cc2F)nc2ccc(C(=O)O)cc21 [Example 802] | 8.44 | 2.33 |  |
| COCCn1c(Cc2cc(F)c(-c3cccc(OCc4ccc(C)cn4)n3)cc2F)nc2ccc(C(=O)O)cc21 [Example 803] | 8.23 | 13.3 |  |
| COCCn1c(Cc2cc(F)c(-c3cccc(OCc4cc(C#N)cs4)n3)cc2F)nc2ccc(C(=O)O)cc21 [Example 804] | 7.36 | 11.5 |  |
| COCCn1c(Cc2cc(F)c(-c3cccc(OCc4ccc(C#N)s4)n3)cc2F)nc2ccc(C(=O)O)cc21 [Example 805] | 8.15 | 12 |  |

| Structure (SMILES) | pEC50 (GLP-1R) | Predicted Hepatic Clearance (Pred. Cl.) [1] [mL/min/kg] | EC50 (GLP-1R; EC50 (nM)) [nM] |
| --- | --- | --- | --- |
| O=C(O)c1ccc2nc(Cc3ccc(-c4cccc(OCc5ccc(Cl)nc5)n4)c(F)c3)n(C[C@@H]3CCO3)c2c1 [Example 806] | 9.27 | 7.17 |  |
| N#Cc1ccc(COc2cccc(-c3cc(F)c(Cc4nc5ccc(C(=O)O)cc5n4C[C@@H]4CCO4)cc3F)n2)cn1 [Example 807] | 9.74 | 3.33 |  |
| O=C(O)c1ccc2nc(Cc3cc(F)c(-c4cccc(OCc5ccc(Cl)cc5)n4)cc3F)n(C[C@@H]3CCO3)c2c1 [Example 808] | 10.30 | 3.5 |  |
| COCCn1c(Cc2cc(F)c(-c3cccc(OCc4ccc(C(F)F)cc4)n3)cc2F)nc2ccc(C(=O)O)cc21 [Example 809] | 8.98 | 2.83 |  |
| COCCn1c(Cc2cc(F)c(-c3cccc(OCc4ccc(C)cc4F)n3)cc2F)nc2ccc(C(=O)O)cc21 [Example 810] | 9.48 | 6.83 |  |
| COCCn1c(Cc2cc(F)c(-c3cccc(OCc4ccc(C)nc4)n3)cc2F)nc2ccc(C(=O)O)cc21 [Example 811] | 8.45 | 10 |  |
| COCCn1c(Cc2cc(F)c(-c3cccc(OCc4ccc(F)nc4)n3)cc2F)nc2ccc(C(=O)O)cc21 [Example 812] | 7.60 | 1.83 |  |
| COCCn1c(Cc2cc(F)c(-c3cccc(OCc4ccc(Cl)nc4)n3)cc2F)nc2ccc(C(=O)O)cc21 [Example 813] | 8.53 | 1.83 |  |
| COCCn1c(Cc2cc(F)c(-c3cccc(OCc4ccc(C)cc4)n3)cc2F)nc2ccc(C(=O)O)cc21 [Example 814] | 8.67 | 6.17 |  |
| COCCn1c(Cc2cc(F)c(-c3cccc(OCc4ccc(F)cc4F)n3)cc2F)nc2ccc(C(=O)O)cc21 [Example 815] | 8.60 | 1.83 |  |
| COCCn1c(Cc2cc(F)c(-c3cccc(OCc4ccc(F)cc4C)n3)cc2F)nc2ccc(C(=O)O)cc21 [Example 816] | 9.00 | 9.5 |  |
| COCCn1c(Cc2cc(F)c(-c3cccc(OCc4ccc(CC#N)cc4)n3)cc2F)nc2ccc(C(=O)O)cc21 [Example 817] | 7.99 | 9 |  |
| COCCn1c(Cc2cc(F)c(-c3cccc(OCc4ccc(F)cc4Cl)n3)cc2F)nc2ccc(C(=O)O)cc21 [Example 818] | 8.37 | 6 |  |
| O=C(O)c1ccc2nc(Cc3cc(F)c(-c4cccc(OCc5ccc(Cl)cc5)n4)cc3F)n(Cc3ncco3)c2c1 [Example 819] | 9.07 | 3.17 |  |
| COCCn1c(Cc2cc(F)c(-c3cccc(OCc4ccc(C#N)nc4)n3)cc2F)nc2ccc(C(=O)O)cc21 [Example 820] |  | 2.67 | 11.5 |
| COCCn1c(Cc2cc(F)c(-c3cccc(OCc4ccc(Cl)nc4C)n3)cc2F)nc2ccc(C(=O)O)cc21 [Example 821] | 7.83 | 2.67 |  |
| COCCn1c(Cc2cc(F)c(-c3cccc(OCc4ccc(C)nc4F)n3)cc2F)nc2ccc(C(=O)O)cc21 [Example 822] | 8.46 | 1.83 |  |
| COCCn1c(Cc2cc(F)c(-c3cccc(OCc4ccc(Cl)nc4F)n3)cc2F)nc2ccc(C(=O)O)cc21 [Example 823] | 7.70 | 1.83 |  |
| COC(=O)N1CC(Cn2c(Cc3cc(F)c(-c4cccc(OCc5ccc(C#N)cc5F)n4)cc3F)nc3ccc(C(=O)O)cc32)(OC)C1 [Example 824] | 6.71 | 7.67 |  |
| COCCn1c(Cc2cc(F)c(-c3cccc(OCc4ccc(C(N)=O)nc4)n3)cc2F)nc2c(F)cc(C(=O)O)cc21 [Example 825] | 8.04 | 1.83 |  |
| NC(=O)c1ccc(COc2cccc(-c3cc(F)c(Cc4nc5ccc(C(=O)O)cc5n4C[C@@H]4CCO4)cc3F)n2)cn1 [Example 826] | 9.55 | 3.67 |  |
